According to patent publication US20200268831A1, “METHODS FOR ENHANCING IMMUNOTHERAPY IN THE TREATMENT OF CANCER” (The Texas A&M University System, priority 2017, published 2020):

Tests used:
[1] = system: MHCII in B cells; experiment: competitive displacement of peptides in the peptide binding groove of MHCII in B cells; format: cell-based; conditions: preliminary studies
Method: To confirm the expression of MHCII staining with fluorochrome-conjugated anti-MHCII antibodies, followed by flow cytometric analysis may be performed. The cells are stained for a panel of cell surface molecules, including CD19, CD80 (B7.1), CD86 (B7.2), CD74, MHCII associated invariant peptide (CLIP), and the family of immune check points, including PD1, B7-H2, and B7-H4. As a starting concentration, the cultured cells are treated with a competitive antagonist peptide (CAP) at a concentration of 5 μg/ml, as established from preliminary studies as the optimum concentration for competitive displacement of peptides in the peptide binding groove of MHCII in B cells. […] To characterize these parameters, including levels of MHCII and other cell surface characteristics, the cells are treated with the competitive antagonist peptide at the previously determined optimum concentration, presumably 5 μg/ml, followed by treatment with anti-MHCII antibody as a surrogate for TCR engagement. Susceptibility to MHCII-mediated cell death is assessed by treating the cells with peptide, followed by treatment with anti-MHCII antibody for periods ranging between 3 and 24 hours to determine the optimum kinetics for inducing cell death. […] The capability of CAP peptide treatment to promote MHCII-mediated cell death may be assessed.

[2] = system: MHC class II expressing B cells; experiment: MHCII-mediated cell death of CpG-activated cells after peptide and anti-MHCII antibody; format: cell-based, C57/B6 mice; conditions: CpG activated cells treated with peptide followed by antibodies to MHCII; FIG. 3A
Method: In a first experiment, animals were injected with complete Freunds adjuvant (CFA) that contains mycobacterial DNA (a well-established TLR activator), or with CFA followed by the competitive antagonist peptide (CLIP inhibitor, SEQ ID NO. 2). Spleens were harvested, stained with CD19 for the detection of B cells, versus CLIP as an indicator of CD19+ cells expressing CLIP. The effect of CLIP inhibitors delivered in vivo on B cells (1A) versus CLIP+B cells (1B) is presented in the bar graphs.
To test the hypothesis that CLIP in the groove prevents MHCII-mediated cell death, we utilized animals that are deficient in CD74 expression (Ii Def mice), thus lacking both the precursor CD74 molecule as well as its proteolytic product, CLIP. […] any increase in cell death following CpG treatment, FIGS. 3A and 3B. […] The absence of CLIP (CLIP knock outs) leaves the cells susceptible to MHC Class II-mediated cell death (3B).

Sequence: FRIMAVLAS [TPP]
- optimum concentration for competitive displacement of peptides in the peptide binding groove of MHCII [1]: 5 µg/mL
- MHC Class-II-mediated cell death [2]: MHC Class-II-mediated cell death can be restored
